Data taken from the supplement of paper PMC10307832.

Legend:
Experiment in all cases: relative viability (nuclei count vs DMSO), 5 days (fraction); higher = more cells survive
Imatinib + Pemetrexed = compound: Cc1ccc(NC(=O)c2ccc(CN3CCN(C)CC3)cc2)cc1Nc1nccc(-c2cccnc2)n1 [Imatinib] + Nc1nc2[nH]cc(CCc3ccc(C(=O)N[C@@H](CCC(=O)O)C(=O)O)cc3)c2c(=O)[nH]1 [Pemetrexed] (partner 0.2 µM)
Method in brief: (§1)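 Lung cancer cell lines, seeded in 1536-well plates, were treated the following day by pin tool with a single drug or with five library-drug doses (not always all listed) in √10 steps on top of a fixed anchor-drug dose. Cells were fixed and nuclei stained in one step after 5 days, and nuclei were counted. Relative viability is the nuclei count for treated wells divided by that for vehicle wells, reported as medians of duplicate plates.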

Imatinib + Linsitinib = compound: Cc1ccc(NC(=O)c2ccc(CN3CCN(C)CC3)cc2)cc1Nc1nccc(-c2cccnc2)n1 [Imatinib] + C[C@]1(O)C[C@@H](c2nc(-c3ccc4ccc(-c5ccccc5)nc4c3)c3c(N)nccn32)C1 [Linsitinib] (partner 1 µM)
Method in brief: as §1

Imatinib + Phenformin = compound: Cc1ccc(NC(=O)c2ccc(CN3CCN(C)CC3)cc2)cc1Nc1nccc(-c2cccnc2)n1 [Imatinib] + N=C(N)NC(=N)NCCc1ccccc1 [Phenformin] (partner 250 µM)
Method in brief: as §1

Imatinib + Crizotinib = compound: Cc1ccc(NC(=O)c2ccc(CN3CCN(C)CC3)cc2)cc1Nc1nccc(-c2cccnc2)n1 [Imatinib] + C[C@@H](Oc1cc(-c2cnn(C3CCNCC3)c2)cnc1N)c1c(Cl)ccc(F)c1Cl [Crizotinib] (partner 1 µM)
Method in brief: as §1

Row | Cell Line | relative viability (Imatinib + Pemetrexed; first compound 0.02 µM) | relative viability (Imatinib + Pemetrexed; first compound 0.2 µM) | relative viability (Imatinib + Pemetrexed; first compound 0.6325 µM) | relative viability (Imatinib + Pemetrexed; first compound 2 µM) | relative viability (Imatinib + Linsitinib; first compound 0.02 µM) | relative viability (Imatinib + Linsitinib; first compound 0.2 µM) | relative viability (Imatinib + Linsitinib; first compound 0.6325 µM) | relative viability (Imatinib + Linsitinib; first compound 2 µM) | relative viability (Imatinib + Phenformin; first compound 0.02 µM) | relative viability (Imatinib + Phenformin; first compound 0.2 µM) | relative viability (Imatinib + Phenformin; first compound 0.6325 µM) | relative viability (Imatinib + Phenformin; first compound 2 µM) | relative viability (Imatinib + Crizotinib; first compound 0.02 µM) | relative viability (Imatinib + Crizotinib; first compound 0.2 µM) | relative viability (Imatinib + Crizotinib; first compound 0.6325 µM) | relative viability (Imatinib + Crizotinib; first compound 2 µM) | relative viability (Imatinib + Pemetrexed; first compound 0.06325 µM) | relative viability (Imatinib + Linsitinib; first compound 0.06325 µM) | relative viability (Imatinib + Phenformin; first compound 0.06325 µM) | relative viability (Imatinib + Crizotinib; first compound 0.06325 µM)
1 | NCI-H1915 | 0.536 | 0.516 | 0.461 | 0.572 | 1.09 | 1.17 | 1.08 | 1.08 | 0.38 | 0.387 | 0.377 | 0.371 | 0.905 | 1.03 | 0.885 | 0.897 |  |  |  | 
2 | NCI-H1437 | 0.318 | 0.374 | 0.33 | 0.279 |  | 1.42 |  | 1.04 | 0.267 | 0.361 | 0.308 | 0.283 | 1.02 | 1.1 | 1.07 | 0.878 | 0.354 | 1.18 | 0.326 | 1.15
3 | CAL-12T | 1.35 | 1.25 | 1.32 | 1.28 | 0.908 | 0.996 | 0.982 | 0.788 | 0.558 | 0.674 | 0.618 | 0.555 | 0.715 | 1.17 | 0.624 | 0.776 | 1.33 | 0.877 |  | 0.696
4 | HOP-62 | 0.302 | 0.356 | 0.29 | 0.317 | 1.12 |  | 0.953 | 0.857 | 0.77 | 0.858 | 0.613 | 0.66 | 0.87 | 0.984 | 1.06 | 1 |  |  |  | 
5 | UMC-11 | 0.906 | 0.864 | 0.811 | 0.781 | 1.14 | 1.05 | 1.08 | 1.06 | 0.331 | 0.322 | 0.332 | 0.294 | 0.702 | 0.56 | 0.564 | 0.818 | 0.972 | 1.57 | 0.327 | 0.647
6 | NCI-H2126 | 0.667 | 0.704 | 0.634 | 0.725 | 0.724 | 0.728 | 0.742 | 0.758 | 0.514 | 0.57 |  | 0.501 | 1.04 | 1.05 | 1 | 0.984 | 0.524 |  |  | 
